pIC50: −log10 of the molar value. Counter-ions that a name gives are not always drawn.
What was measured:
[1] = target: ATM (Homo sapiens (Human), UniProt Q13315); experiment: ATM in Cell Western Assay (pKAP1 in etoposide-treated MCF-7 cells); format: cell-based
Method in brief: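 After paraformaldehyde fixation and Triton X-100 permeabilization, immunostained plates were read by infrared scanning (ODYSSEY CLx). Compound was given as 10 doses, 3-fold dilutions from a 1 μM final top concentration.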

[2] = target: DNA-PK (Homo sapiens (Human), UniProt P78527); experiment: DNA-PK Enzyme-Linked Immunosorbent Assay (phosphorylation of GST-p53 (1-101) peptide); format: biochemical; settings: ELISA
Method in brief: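 Inhibition measured by 450 nm absorbance after HRP/TMB detection of phospho-Ser15 on immobilized GST-p53 (1-101). The kinase reaction used 0.1 μg/mL DNA-PK and 20 μM ATP, 1 h at 25 °C. Ten 3-fold compound dilutions, top final concentration 100 nM.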

[3] = pKAP1 in etoposide-treated MCF-7 cells
[4] = MCF-7 cells, etoposide 100 μM, 1 hr, pKAP1 readout

Sequence of ATM (Q13315 whole entry): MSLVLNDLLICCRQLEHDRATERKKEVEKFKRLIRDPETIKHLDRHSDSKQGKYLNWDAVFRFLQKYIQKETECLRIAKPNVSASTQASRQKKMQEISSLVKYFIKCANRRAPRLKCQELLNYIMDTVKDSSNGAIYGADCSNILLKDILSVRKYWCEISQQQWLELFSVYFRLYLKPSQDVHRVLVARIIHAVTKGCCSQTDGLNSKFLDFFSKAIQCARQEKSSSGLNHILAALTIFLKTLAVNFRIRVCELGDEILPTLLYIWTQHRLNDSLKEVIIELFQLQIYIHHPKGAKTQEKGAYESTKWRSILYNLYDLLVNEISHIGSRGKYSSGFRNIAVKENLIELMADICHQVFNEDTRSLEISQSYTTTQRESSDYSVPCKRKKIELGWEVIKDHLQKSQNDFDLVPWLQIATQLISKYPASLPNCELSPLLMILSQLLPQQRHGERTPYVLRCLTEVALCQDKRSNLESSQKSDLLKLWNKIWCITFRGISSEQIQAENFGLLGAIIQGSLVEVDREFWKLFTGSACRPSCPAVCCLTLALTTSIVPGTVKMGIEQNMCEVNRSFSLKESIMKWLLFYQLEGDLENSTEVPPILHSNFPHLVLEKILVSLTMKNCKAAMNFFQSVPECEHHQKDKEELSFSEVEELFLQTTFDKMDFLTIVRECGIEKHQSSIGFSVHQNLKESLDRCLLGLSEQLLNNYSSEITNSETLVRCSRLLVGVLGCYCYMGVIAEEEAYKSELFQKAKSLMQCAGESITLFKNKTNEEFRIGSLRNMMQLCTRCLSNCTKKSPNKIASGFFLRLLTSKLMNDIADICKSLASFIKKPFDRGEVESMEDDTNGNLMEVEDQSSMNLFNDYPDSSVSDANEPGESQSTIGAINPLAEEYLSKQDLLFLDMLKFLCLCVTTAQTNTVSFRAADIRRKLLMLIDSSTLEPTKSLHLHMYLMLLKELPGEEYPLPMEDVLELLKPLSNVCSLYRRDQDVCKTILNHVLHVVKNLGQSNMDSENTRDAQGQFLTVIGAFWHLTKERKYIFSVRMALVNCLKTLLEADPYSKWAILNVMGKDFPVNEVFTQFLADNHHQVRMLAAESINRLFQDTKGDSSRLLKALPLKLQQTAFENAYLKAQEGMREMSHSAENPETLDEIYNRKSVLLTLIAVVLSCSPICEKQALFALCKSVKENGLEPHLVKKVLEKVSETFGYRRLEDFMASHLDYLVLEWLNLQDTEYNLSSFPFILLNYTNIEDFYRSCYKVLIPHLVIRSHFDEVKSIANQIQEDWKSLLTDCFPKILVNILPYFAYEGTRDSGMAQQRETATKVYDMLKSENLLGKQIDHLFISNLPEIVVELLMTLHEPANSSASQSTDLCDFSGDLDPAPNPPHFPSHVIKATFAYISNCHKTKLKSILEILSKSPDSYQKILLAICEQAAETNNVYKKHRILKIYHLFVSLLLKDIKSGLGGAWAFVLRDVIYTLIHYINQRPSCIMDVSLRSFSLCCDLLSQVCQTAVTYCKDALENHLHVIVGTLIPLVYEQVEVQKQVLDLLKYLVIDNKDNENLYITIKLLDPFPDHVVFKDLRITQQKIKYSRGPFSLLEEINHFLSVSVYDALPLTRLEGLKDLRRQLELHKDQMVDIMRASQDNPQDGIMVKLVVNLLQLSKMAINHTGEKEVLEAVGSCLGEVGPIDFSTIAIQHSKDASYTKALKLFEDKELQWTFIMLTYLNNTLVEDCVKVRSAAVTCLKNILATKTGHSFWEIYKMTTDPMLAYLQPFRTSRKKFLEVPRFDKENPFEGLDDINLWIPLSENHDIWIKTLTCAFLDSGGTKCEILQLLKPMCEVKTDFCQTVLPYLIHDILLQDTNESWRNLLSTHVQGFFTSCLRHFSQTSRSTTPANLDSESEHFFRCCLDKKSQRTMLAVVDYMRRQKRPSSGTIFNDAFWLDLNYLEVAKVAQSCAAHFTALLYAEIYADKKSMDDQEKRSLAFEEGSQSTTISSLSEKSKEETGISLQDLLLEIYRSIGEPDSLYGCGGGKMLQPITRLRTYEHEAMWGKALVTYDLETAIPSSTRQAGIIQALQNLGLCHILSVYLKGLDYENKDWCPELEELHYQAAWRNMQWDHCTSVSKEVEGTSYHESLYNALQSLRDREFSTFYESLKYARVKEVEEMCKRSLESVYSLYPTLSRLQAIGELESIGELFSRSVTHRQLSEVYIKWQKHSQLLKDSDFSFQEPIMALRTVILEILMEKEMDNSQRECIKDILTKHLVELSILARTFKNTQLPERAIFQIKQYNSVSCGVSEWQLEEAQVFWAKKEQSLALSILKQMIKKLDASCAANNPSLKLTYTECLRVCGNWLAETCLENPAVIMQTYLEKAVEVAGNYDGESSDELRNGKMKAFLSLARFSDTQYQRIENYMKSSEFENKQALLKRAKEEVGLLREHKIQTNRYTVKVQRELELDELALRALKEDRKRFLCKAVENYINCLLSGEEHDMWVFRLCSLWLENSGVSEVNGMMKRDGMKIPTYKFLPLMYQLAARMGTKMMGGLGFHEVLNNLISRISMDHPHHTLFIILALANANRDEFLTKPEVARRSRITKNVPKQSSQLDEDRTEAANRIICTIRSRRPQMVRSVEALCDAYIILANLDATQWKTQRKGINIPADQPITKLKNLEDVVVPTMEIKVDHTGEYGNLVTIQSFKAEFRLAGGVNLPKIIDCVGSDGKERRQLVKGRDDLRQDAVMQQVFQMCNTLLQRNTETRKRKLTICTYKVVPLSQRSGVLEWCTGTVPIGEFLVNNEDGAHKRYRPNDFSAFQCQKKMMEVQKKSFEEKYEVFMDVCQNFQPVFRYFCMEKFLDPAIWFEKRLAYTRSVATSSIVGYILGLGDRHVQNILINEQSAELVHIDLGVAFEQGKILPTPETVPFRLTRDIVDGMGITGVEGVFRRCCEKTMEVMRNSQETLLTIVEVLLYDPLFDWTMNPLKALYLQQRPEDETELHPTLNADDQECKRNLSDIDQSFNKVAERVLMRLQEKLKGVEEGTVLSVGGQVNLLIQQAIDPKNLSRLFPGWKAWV

Compound | pIC50 [1, 3] | pIC50 ([2]; 20 μM ATP) | pIC50 [1, 4] | pIC50 ([2]; ATP 20 μM)
CCO[C@H]1C[C@]2(C1)C(=O)N(C)c1cnc3cc(F)c(-c4cnc(OCCNC(C)C)c(NS(C)(=O)=O)c4)cc3c12 [Example 393, cis-N-(5-(3-Ethoxy-7′-fluoro-3′-methyl-2′-oxo-2′,3′-dihydrospiro[cyclobutane-1,1′-pyrrolo[2,3-c]quinolin]-8′-yl)-2-(2-(isopropylamino)ethoxy)pyridin-3-yl) methanesulfonamide] | 7.00 to 9.00 | 7.00 to 9.00 |  | 
CC(C)NCCOc1ncc(-c2cc3c(cc2F)ncc2c3[C@]3(C[C@H](Nc4ccccc4)C3)C(=O)N2C)cc1NS(C)(=O)=O [Example 459, cis-N-(5-(7′-Fluoro-3′-methyl-2′-oxo-3-(phenylamino)-2′,3′-dihydrospiro[cyclobutane-1,1′-pyrrolo[2,3-c]quinolin]-8′-yl)-2-(2-(isopropylamino)ethoxy)pyridin-3-yl)methanesulfonamide] | 7.00 to 9.00 | 9.00 to 9.30 |  | 
CN1C(=O)C2(CC2)c2c1cnc1ccc(-c3cnc(OCCC4CCCCN4C)c(NS(=O)(=O)c4ccccc4)c3)cc21 (centres unmarked) [Example 81, N-(5-(3′-Methyl-2′-oxo-2′,3′-dihydrospiro [cyclopropane-1,1′-pyrrolo[2,3-c]quinolin]-8′-yl)-2-(2-(1-methylpiperidin-2-yl)ethoxy)pyridin-3-yl)benzenesulfonamide] |  |  | 7.00 to 9.00 | 7.00 to 9.00
Cc1ccc(S(=O)(=O)n2c(CCN3CCCCC3)cc3ncc(-c4ccc5ncc6c(c5c4)C4(CCC4)C(=O)N6C)cc32)cn1 [Example 216, 3′-Metbyl-8′-(1-((6-methylpyridin-3-yl)sulfonyl)-2-(2-(piperidin-1-yl)ethyl)-1H-pyrrolo[3,2-b]pyridin-6-yl)spiro[cyclobutane-1,1′-pyrrolo[2,3-c]quinolin]-2′(3′-H)-one] |  |  | 7.00 to 9.00 | 7.00 to 9.00
CC(C)NCCOc1ncc(-c2cc3c(cc2F)ncc2c3[C@]3(C[C@H](OC(C)c4ccccc4)C3)C(=O)N2C)cc1NS(C)(=O)=O (stereo partly drawn) [Example 397, cis-N-(5-(7′-Fluoro-3′-methyl-2′-oxo-3-(1-phenylethoxy)-2′,3′-dihydrospiro[cyclobutane-1,1′-pyrrolo[2,3-c]quinolin]-8′-yl)-2-(2-(isopropylamino)ethoxy)pyridin-3-yl)methanesulfonamide] | 7.00 to 9.00 | > 9.30 |  | 
CCN(C)S(=O)(=O)Nc1cc(-c2ccc3ncc4c(c3c2)C2(CC2)C(=O)N4C)cnc1N1CCC(N2CCCCC2)CC1 [Example 214] |  |  | 9.00 to 9.30 | 9.00 to 9.30
CC(C)NCCOc1ncc(-c2cc3c(cc2F)ncc2c3[C@]3(C[C@H](c4ccc(Cl)cc4)C3)C(=O)N2C)cc1NS(C)(=O)=O [Example 416, cis-N-(5-(3-(4-Chlorophenyl)-7′-fluoro-3′-methyl-2′-oxo-2′,3′-dihydrospiro[cyclobutane-1,1′-pyrrolo[2,3-c]quinolin]-8′-yl)-2-(2-(isopropylamino)ethoxy)pyridin-3-yl)methanesulfonamide] | 7.00 to 9.00 | 7.00 to 9.00 |  | 
CN1C(=O)C2(CCC2)c2c1cnc1ccc(-c3cnc(N4CCC(N(C)C)CC4)c(NS(=O)(=O)C4CC4)c3)cc21 [Example 173, N-(2-(4-(Dimethylamino)piperidin-1-yl)-5-(3′-methyl-2′-oxo-2′,3′-dihydrospiro[cyclobutane-1,1′-pyrrolo[2,3-c]quinolin]-8′-yl)pyridin-3-yl)cyclopropanesulfonamide] |  |  | > 9.30 | > 9.30
CN1C(=O)C2(CCC2)c2c1cnc1ccc(-c3cnc(OCCCN4CCCC4)c(NS(=O)(=O)N(C)C)c3)cc21 [Example 242, 8′-(5-[(Dimethylsulfamoyl)amino]-6-[3-(pyrrolidin-1-yl)propoxy]pyridin-3-yl)-3′-methyl-2′,3′-dihydrospiro [cyclobutane-1,1′-pyrrolo[2,3-c]quinoline]-2′-one] |  |  | 9.00 to 9.30 | 7.00 to 9.00
Cc1ccc(S(=O)(=O)Nc2cc(-c3ccc4ncc5c(c4c3)C3(CCC3)C(=O)N5C)cnc2N2CCC(N(C)C)CC2)cn1 [Example 185, N-(2-(4-(Dimethylamino)piperidin-1-yl)-5-(3′-methyl-2′-oxo-2′,3′-dihydrospiro[cyclobutane-1,1′-pyrrolo[2,3-c]quinolin]-8′-yl)pyridin-3-yl)-6-methylpyridine-3-sulfonamide hydrochloride] |  |  | 7.00 to 9.00 | 9.00 to 9.30
CN1CCN(c2ncc(-c3ccc4ncc5c(c4c3)C3(CCC3)C(=O)N5C)cc2NS(=O)(=O)c2ccccc2)CC1 [Example 243, N-(5-(3′-Methyl-2′-oxo-2′,3′-dihydrospiro[cyclobutane-1,1′-pyrrolo[2,3-c]quinolin]-8′-yl)-2-(4-methylpiperazin-l-yl)Pyridin-3-yl)benzenesulfonamide] |  |  | 7.00 to 9.00 | 7.00 to 9.00
Cc1cccc(N2CC3(C2)C(=O)N(C)c2cnc4cc(F)c(-c5cnc(OCCNC(C)C)c(NS(C)(=O)=O)c5)cc4c23)c1 [Example 527, N-(5-(7′-Fluoro-3′-methyl-2′-oxo-1-(m-tolyl)-2′,3′-dihydrospiro[azetidine-3,1′-pyrrolo[2,3-c]quinolin]-8′-yl)-2-(2-(isopropylamino)ethoxy)pyridin-3-yl)methanesulfonamide] | 7.00 to 9.00 | 7.00 to 9.00 |  | 
CCN1C(=O)C2(CC2)c2c1cnc1ccc(-c3cnc(OCCCN(C)C)c(NS(=O)(=O)c4ccccc4)c3)cc21 [Example 42, N-(2-(3-(Dimethylamino)propoxy)-5-(3′-ethyl-2′-oxo-2′,3′-dihydrospiro [cyclopropane-1,1′-pyrrolo[2,3-c]quinolin]-8′-yl)pyridin-3-yl)benzenesulfonamide] |  |  | 7.00 to 9.00 | 9.00 to 9.30
CC(C)NCCOc1ncc(-c2cc3c(cc2F)ncc2c3[C@]3(C[C@H](C)C3)C(=O)N2C)cc1NS(C)(=O)=O [Example 448, cis-N-(5-(7′-Fluoro-3,3′-dimethyl-2′-oxo-2′,3′-dihydrospiro[cyclobutane-1,1′-pyrrolo[2,3-c]quinolin]-8′-yl)-2-(2-(isopropylamino)ethoxy)pyridin-3-yl)methanesulfonamide] | 7.00 to 9.00 | 7.00 to 9.00 |  | 
CN(C)CCCOc1ncc(-c2ccc3ncc4c(c3c2)C2(CC2)C(=O)N4C)cc1NS(=O)(=O)N1CCCC1 [Example 89, N-(2-(3-(Dimethylamino)propoxy)-5-(3′-methyl-2′-oxo-2′,3′-dihydrospiro [cyclopropane-1,1′-pyrrolo[2,3-c]quinolin]-8′-yl)pyridin-3-yl)pyrrolidine-1-sulfonamide hydrochloride] |  |  | 9.00 to 9.30 | > 9.30
COC1CN(S(=O)(=O)Nc2cc(-c3cc4c5c(cnc4cc3F)N(C)C(=O)C53CCC3)cnc2N2CC(N(C)C)C2)C1 [Example 311, N-(2-(3-(Dimethylamino)azetidin-1-yl)-5-(7′-fluoro-3′-methyl-2′-oxo-2′,3′-dihydrospiro[cyclobulane-1,1′-pyrrolo[2,3-c]quinolin]-8′-yl)pyridin-3-yl)-3-methoxyazetidine-1-sulfonamide formate] |  |  | 7.00 to 9.00 | 7.00 to 9.00
CC(C)NCCOc1ncc(-c2cc3c4c(cnc3cc2F)N(C)C(=O)C42CN(c3ccccc3)C2)cc1NS(C)(=O)=O [Example 519, N-(5-(7′-Fluoro-3′-methyl-2′-oxo-1-phenyl-2′,3′-dihydrospiro[azetidine-3,1′-pyrrolo[2,3-c]quinolin]-8′-yl)-2-(2-(isopropylamino)ethoxy)pyridin-3-yl)methanesulfonamide hydrochloride] | 7.00 to 9.00 | > 9.30 |  | 
CN(C)CCCOc1ncc(-c2cc3c4c(cnc3cc2F)N(C)C(=O)C42CC2)cc1NS(=O)(=O)c1ccccc1 [Example 65, N-(2-(3-(Dimethylamino)propoxy)-5-(7′-fluoro-3′-methyl-2′-oxo-2′,3′-dihydrospiro [cyclopropane-1,1′-pyrrolo[2,3-c]quinolin]-8′-yl)pyridin-3-yl) benzenesulfonamide] |  |  | 7.00 to 9.00 | 7.00 to 9.00
Cc1ccc(S(=O)(=O)Nc2cc(-c3ccc4ncc5c(c4c3)C3(CCC3)C(=O)N5C)cnc2N2CCC(N3CCOCC3)CC2)cc1 [Example 167, 4-Methyl-N-(5-(3′-methyl-2′-oxo-2′,3′-dihydrospiro[cyclobutane-1,1′-pyrrolo[2,3-c]quinolin]-8′-yl)-2-(4-morpholinopiperidin-l-yl)pyridin-3-yl)benzenesulfonamide hydrochloride] |  |  | 7.00 to 9.00 | 7.00 to 9.00
CN(C)CCCOc1ncc(-c2ccc3ncc4c(c3c2)C2(CCC2)C(=O)N4C)cc1NS(=O)(=O)c1ccc(C(F)(F)F)cc1 [Example 186, N-(2-(3-(Dimethylamino)propoxy)-5-(3′-methyl-2′-oxo-2′,3′-dihydrospiro[cyclobutane-1,1′-pyrrolo[2,3-c]quinolin]-8′-yl)pyridin-3-yl)-4-(trifluoromethyl)benzenesulfonamide hydrochloride] |  |  | 7.00 to 9.00 | 7.00 to 9.00
CN1C(=O)C2(CCC2)c2c1cnc1ccc(-c3cnc(OCCCN4CCC(F)CC4)c(NS(C)(=O)=O)c3)cc21 [Example 286, N-(2-(3-(4-Fluoropiperidin-1-yl)propoxy)-5-(3′-methyl-2′-oxo-2′,3′-dihydrospiro[cyclobutane-1,1′-pyrrolo[2,3-c]quinolin]-8′-yl)pyridin-3-yl)methanesulfonamide] |  |  | 7.00 to 9.00 | > 9.30
CN(C)CCCOc1ncc(-c2ccc3ncc4c(c3c2)C2(CCC2)C(=O)N4C)cc1NS(=O)(=O)C(F)(F)F [Example 239, N-(2-(3-(Dimethylamino)propoxy)-5-(3′-methyl-2′-oxo-2′,3′-dihydrospiro [cyclobutane-1,1′-pyrrolo[2,3-c]quinolin]-8′-yl)pyridin-3-yl)-1,1,1-trifluoromethane-sulfonamide] |  |  | 7.00 to 9.00 | > 9.30

Source: US12187742B2 (XRAD Therapeutics, Inc., priority 2018, dated 2025)
